Assay results: patent US10053485B2, “Cytotoxic agents that preferentially target leukemia inhibitory factor (LIF) for the treatment of malignancies and as new contraceptive agents” (Evestra, Inc., priority 2015, dated 2018)

Experiments:
A549/ATCC = test: NCI-60 screen, Non-Small Cell Lung Cancer panel; assay type: cell-based; settings: Homo sapiens, A549, 48 h
HOP-92 = test: NCI-60 screen, Non-Small Cell Lung Cancer panel; assay type: cell-based; settings: Homo sapiens, HOP-92, 48 h
NCI-H23 = test: NCI-60 screen, Non-Small Cell Lung Cancer panel; assay type: cell-based; settings: Homo sapiens, NCI-H23, 48 h
NCI-H332M = test: NCI-60 screen, Non-Small Cell Lung Cancer panel; assay type: cell-based; settings: Homo sapiens, 48 h
NCI-H522 = test: NCI-60 screen, Non-Small Cell Lung Cancer panel; assay type: cell-based; settings: Homo sapiens, NCI-H522, 48 h
HCT-15 = test: NCI-60 screen, Colon Cancer panel; assay type: cell-based; settings: Homo sapiens, HCT-15, 48 h
SF-539 = test: NCI-60 screen, CNS Cancer panel; assay type: cell-based; settings: Homo sapiens, SF-539, 48 h
SNB-19 = test: NCI-60 screen, CNS Cancer panel; assay type: cell-based; settings: Homo sapiens, SNB-19, 48 h
MALME-3M = test: NCI-60 screen, Melanoma panel; assay type: cell-based; settings: Homo sapiens, 48 h
OVCAR-4 = test: NCI-60 screen, Ovarian Cancer panel; assay type: cell-based; settings: Homo sapiens, OVCAR-4, 48 h
DU-145 = test: NCI-60 screen, Prostate Cancer panel; assay type: cell-based; settings: Homo sapiens, DU-145, 48 h, read-out: GI50 (log10GI50) (converted)
ACHN = test: NCI-60 screen, Renal Cancer panel; assay type: cell-based; settings: Homo sapiens, 48 h
RXF 393 = test: NCI-60 screen, Renal Cancer panel; assay type: cell-based; settings: Homo sapiens, RXF 393, 48 h
MDA-MB-231 ATCC = test: NCI-60 screen, Breast Cancer panel; assay type: cell-based; settings: Homo sapiens, MDA-MB-231, 48 h
U87-MU (Glioma cells) = test: Short term (72 h) cytotoxicity assay; assay type: cell-based; settings: Glioma cell
[1] = tested on: human umbilical vein endothelial cells (HUVEC); test: Matrigel in vitro HUVECs tube formation assay (angiogenesis); assay type: cell-based
Experimental: Matrigel in vitro HUVECs tube formation assay: The tube formation assay was performed using 12-well plate coated with 100 μL Matrigel basement membrane matrix (BD Bioscience) per well and polymerized at 37° C. for 30 min. Human umbilical vascular endothelial cells (HUVECs) suspended in M199 medium containing 2% FBS were plated on the Matrigel at a density of 2×10^5 cells/well. […] After 8 h, the Matrigel-induced morphological changes were photographed and the extent of capillary tube formation was evaluated by measuring the total tube length per field.

[2] = tested on: MDM2 / P53 in MCF-7 cells; test: P53 / MDM2 levels in MCF-7 cells (FIG. 5); assay type: cell-based, human
[3] = tested on: MDA-MB-231 (TNBC) Xenograft; test: Tumor xenograft study, MDA-MB-231; assay type: in vivo, mice
Experimental: Uniform suspensions of human breast cancer MDA-MB-231 and human ovarian cancer IGROV1 cells (2×10^6) in 100 μL (0.02 carboxymethyl cellulose in phosphate buffered saline) were injected subcutaneously into the right and left flanks of 4- to 5-week-old female athymic nude mice (Charles River Laboratories). After 10 days, when the tumor […] reaches 100 mm^3, the mice were randomly allocated to 3 groups of each containing 6 animals. […] All drug was suspended in PBS followed by sonication (15 seconds with an intermittent interval of 5 seconds) for 1 minute. Tumors were allowed to reach palpability before drug intervention. Tumor size was measured every 3 days using digital Vernier Calipers and tumor volume was calculated using the ellipsoid formula [D×(d2)]/2, where D is the large diameter of the tumor and d represents the small diameter. On day 31, the mice were euthanized and tumors were harvested for protein and gene expression studies. […] FIG. 6B depicts a graph of tumor volume vs. time for the administration of EC300 at 2.5 mg/kg twice weekly in the MDA-MB-231 (TNBC) Xenograft. […] FIG. 7 depicts a graph of tumor volume vs. time for the administration of EC300 at 5 mg/kg 5 days per week in the IGROV1 (Ovarian) Xenograft. […] STAT3 phosphorylation is reduced in tumors that underwent treatment compared to control which is an indication of LIF downstream target.

[4] = tested on: SMAD phosphorylation (TGF-beta); test: Phosphorylation of SMAD; settings: through blocking TGF-beta
[5] = read-out: GI50 (log10GI50) (converted)
[6] = read-out: LC50 (log10LC50) (converted)

C#CC(F)(F)[C@]1(O)CCC2C3CCC4=CC(=O)CCC4=C3C(c3ccc(C4CC4)cc3)C[C@@]21C (stereo partly drawn) [EC330, 17α-(1,1-difluoro-2-propyn-1-yl)-17β-hydroxy-11β-[4-p-(cyclopropyl)phenyl]estra-4,9-dien-3-one]
GI50 (A549/ATCC; [5]): 2450 nM
CC50 (A549/ATCC; [6]): > 100000 nM
GI50 (HOP-92; [5]): < 10 nM
CC50 (HOP-92; [6]): 19.1 nM
GI50 (NCI-H23; [5]): < 10 nM
CC50 (NCI-H23; [6]): > 100000 nM
GI50 (NCI-H332M; [5]): 3800 nM
CC50 (NCI-H332M; [6]): > 100000 nM
GI50 (NCI-H522; [5]): < 10 nM
CC50 (NCI-H522; [6]): < 10 nM
GI50 (HCT-15; [5]): 1480 nM
CC50 (HCT-15; [6]): > 100000 nM
GI50 (SF-539; [5]): < 10 nM
CC50 (SF-539; [6]): 52.5 nM
GI50 (SNB-19; [5]): 3800 nM
CC50 (SNB-19; [6]): > 100000 nM
GI50 (MALME-3M; [5]): < 10 nM
CC50 (MALME-3M; [6]): 81.3 nM
GI50 (OVCAR-4; [5]): 3890 nM
CC50 (OVCAR-4; [6]): > 100000 nM
GI50 (DU-145): 1910 nM
GI50 (ACHN; [5]): 1510 nM
CC50 (ACHN; [6]): > 100000 nM
GI50 (RXF 393; [5]): 1070 nM
CC50 (RXF 393; [6]): > 100000 nM
GI50 (MDA-MB-231 ATCC; [5]): 550 nM
CC50 (MDA-MB-231 ATCC; [6]): > 100000 nM
IC50 (U87-MU (Glioma cells)): 25 nM
tube formation ([1]; 1 μM concentration, all measured time points): complete abrogation
angiogenesis in vitro (tube formation assay) ([1]; FIG. 2): inhibited
P53 levels / MDM2 [2]: restore P53 levels by inhibiting MDM2
apoptosis in xenograft tumors ([3]; MDA-MB-231 xenograft tumors, FIG. 9): induced apoptosis dose dependently
tumor growth ([3]; human triple negative breast cancer (TNBC) model): significantly reduced
STAT3 phosphorylation in tumors ([3]; treated vs. control, 'It is believed'): reduced
phosphorylation of SMAD [4]: indirectly diminish the phosphorylation of SMAD
